Measurements: PubChem BioAssay AID2060502 (Molecular Pharmacology Branch, DTP, NCI, 2025)
pIC50: −log10 of the molar value.

Test system: 885724-159-R-J1-PDC complex spheroid viability
Assay: Anticancer human tumor 885724-159-R-J1-PDC patient-derived pancreatic adenocarcinoma cell line growth inhibition [GQUAD]
Conditions: for pIC50: curve of first compound; for viability, T/C: stronger effect = lower value
In short: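 Viability of tumor cells grown as complex spheroids with endothelial and stromal cells, exposed to drug combinations. Top concentration at or near clinical Cmax (else 10 microM), diluted in half-log increments.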

[1] = second compound 0.0316 µM, first compound 0.0316 µM
[2] = second compound 0.0316 µM, first compound 0.1 µM
[3] = second compound 0.0316 µM, first compound 0.316 µM
[4] = second compound 0.0316 µM, first compound 1 µM
[5] = second compound 0.0316 µM, first compound 3.16 µM
[6] = second compound 0.0316 µM, first compound 10 µM
[7] = second compound 0.1 µM, first compound 0.0316 µM
[8] = second compound 0.1 µM, first compound 0.1 µM
[9] = second compound 0.1 µM, first compound 0.316 µM
[10] = second compound 0.1 µM, first compound 1 µM
[11] = second compound 0.1 µM, first compound 3.16 µM
[12] = second compound 0.1 µM, first compound 10 µM
[13] = second compound 0.316 µM, first compound 0.0316 µM
[14] = second compound 0.316 µM, first compound 0.1 µM
[15] = second compound 0.316 µM, first compound 0.316 µM
[16] = second compound 0.316 µM, first compound 1 µM
[17] = second compound 0.316 µM, first compound 3.16 µM
[18] = second compound 0.316 µM, first compound 10 µM
[19] = second compound 1 µM, first compound 0.0316 µM
[20] = second compound 1 µM, first compound 0.1 µM
[21] = second compound 1 µM, first compound 0.316 µM
[22] = second compound 1 µM, first compound 1 µM
[23] = second compound 1 µM, first compound 3.16 µM
[24] = second compound 1 µM, first compound 10 µM
[25] = second compound 3.16 µM, first compound 0.0316 µM
[26] = second compound 3.16 µM, first compound 0.1 µM
[27] = second compound 3.16 µM, first compound 0.316 µM
[28] = second compound 3.16 µM, first compound 1 µM
[29] = second compound 3.16 µM, first compound 3.16 µM
[30] = second compound 3.16 µM, first compound 10 µM
[31] = second compound 10 µM, first compound 0.0316 µM
[32] = second compound 10 µM, first compound 0.1 µM
[33] = second compound 10 µM, first compound 0.316 µM
[34] = second compound 10 µM, first compound 1 µM
[35] = second compound 10 µM, first compound 3.16 µM
[36] = second compound 10 µM, first compound 10 µM
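Note: spheroids exposed to agents for seven days before readout.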
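Throughout, for viability, T/C: percent of vehicle control viability where 100% = DMSO wells.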

CC(=O)O[C@H]1C(=O)[C@@]2(C)[C@H]([C@H](OC(=O)c3ccccc3)[C@]3(O)C[C@H](OC(=O)[C@H](O)[C@@H](NC(=O)c4ccccc4)c4ccccc4)C(C)=C1C3(C)C)[C@]1(OC(C)=O)CO[C@@H]1C[C@@H]2O + Cc1[nH]c2ccc(F)cc2c1-c1nc2c3cccnc3c3ncccc3c2[nH]1
pIC50 (second compound 0.0316 µM): < 5.00 | pIC50 (second compound 0.1 µM): < 5.00 | pIC50 (second compound 0.316 µM): < 5.00 | pIC50 (second compound 1 µM): < 5.00 | pIC50 (second compound 3.16 µM): > 7.50 | pIC50 (second compound 10 µM): < 5.00 | viability, T/C [1]: 102% | viability, T/C [2]: 76.5% | viability, T/C [3]: 85.7% | viability, T/C [4]: 91.4% | viability, T/C [5]: 81.6% | viability, T/C [6]: 83.3% | viability, T/C [7]: 112% | viability, T/C [8]: 83.2% | viability, T/C [9]: 78% | viability, T/C [10]: 84.8% | viability, T/C [11]: 86.5% | viability, T/C [12]: 87% | viability, T/C [13]: 87.8% | viability, T/C [14]: 77.8% | viability, T/C [15]: 82.8% | viability, T/C [16]: 79.6% | viability, T/C [17]: 80.8% | viability, T/C [18]: 80.2% | viability, T/C [19]: 69.5% | viability, T/C [20]: 54.7% | viability, T/C [21]: 61.8% | viability, T/C [22]: 51.1% | viability, T/C [23]: 78.6% | viability, T/C [24]: 55.5% | viability, T/C [25]: 16.7% | viability, T/C [26]: 6.91% | viability, T/C [27]: 7.17% | viability, T/C [28]: 8.73% | viability, T/C [29]: 10% | viability, T/C [30]: 5.61% | viability, T/C [31]: 56.7% | viability, T/C [32]: 53.2% | viability, T/C [33]: 54.5% | viability, T/C [34]: 55% | viability, T/C [35]: 68.5% | viability, T/C [36]: 59.2%

COc1cc(C2c3cc4c(cc3C(OC3OC5COC(C)OC5C(O)C3O)C3COC(=O)C23)OCO4)cc(OC)c1O (centres undefined) + Cc1[nH]c2ccc(F)cc2c1-c1nc2c3cccnc3c3ncccc3c2[nH]1
pIC50 (second compound 0.0316 µM): < 5.00 | pIC50 (second compound 0.1 µM): < 5.00 | pIC50 (second compound 0.316 µM): < 5.00 | pIC50 (second compound 1 µM): < 5.00 | pIC50 (second compound 3.16 µM): > 7.50 | pIC50 (second compound 10 µM): < 5.00 | viability, T/C [1]: 92.8% | viability, T/C [2]: 88.7% | viability, T/C [3]: 93.8% | viability, T/C [4]: 94.9% | viability, T/C [5]: 79.2% | viability, T/C [6]: 88.5% | viability, T/C [7]: 102% | viability, T/C [8]: 117% | viability, T/C [9]: 93.1% | viability, T/C [10]: 103% | viability, T/C [11]: 80.2% | viability, T/C [12]: 80.2% | viability, T/C [13]: 103% | viability, T/C [14]: 87.2% | viability, T/C [15]: 80.7% | viability, T/C [16]: 83.2% | viability, T/C [17]: 79.7% | viability, T/C [18]: 72.3% | viability, T/C [19]: 89.5% | viability, T/C [20]: 69.8% | viability, T/C [21]: 75% | viability, T/C [22]: 69.1% | viability, T/C [23]: 77.8% | viability, T/C [24]: 61% | viability, T/C [25]: 53.2% | viability, T/C [26]: 32.2% | viability, T/C [27]: 45.4% | viability, T/C [28]: 43.7% | viability, T/C [29]: 35.8% | viability, T/C [30]: 26.5% | viability, T/C [31]: 68.3% | viability, T/C [32]: 69.3% | viability, T/C [33]: 70.9% | viability, T/C [34]: 68% | viability, T/C [35]: 70.6% | viability, T/C [36]: 55.4%
